According to PMC8956739, “A synthetic lipopeptide targeting top-priority multidrug-resistant Gram-negative pathogens” (Nature Communications, 2022):
Residues, ends and D or L forms follow the SMILES beside them.

Assays:
[1] = test system: K. pneumoniae FADDI-KP032; format: cell-based, Klebsiella pneumoniae; conditions: FADDI-KP032
Method in brief: (§1)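 Compounds were serially diluted in CaMHB, bacteria were added, and the lowest inhibitory concentration was recorded after broth microdilution testing.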

[2] = test system: K. pneumoniae FADDI-KP065; format: cell-based, Klebsiella pneumoniae; conditions: FADDI-KP065
Method in brief: as §1

[3] = test system: A. baumannii AB5075; assay: Transcriptomic analysis (RNA-Seq) of bacteria; format: cell-based, Acinetobacter baumannii; conditions: for log2FC, gene ABUW_RS01945 (acyl-CoA thioesterase II) / log2FC, gene ABUW_RS02545 (acyl-CoA thioesterase) / log2FC, gene ABUW_RS05045 (acyl-CoA thioesterase) / log2FC, gene ABUW_RS17575 (acyl-CoA thioesterase): pathway Fatty Acid and Lipid Degradation
Procedure: Mid-log phase A. baumannii AB5075 (~10^8 CFU/mL) in CaMHB was treated with colistin (2 and 8 μg/mL), F287, F319 or F365 (equimolar concentration to colistin) for 1 and 4 h. Total RNA was extracted using TRIzol Reagent (Invitrogen, USA) and RNeasy Mini Kit (Qiagen, Germany). Quality check of RNA samples was conducted with NanoDrop (Thermo Fisher Scientific, USA) and Agilent 2100 Bioanalyzer (Agilent Technologies, USA) for sequencing (150 bp paired-end) at Genewiz (Shanghai, China). Raw reads were aligned to A. baumannii AB5075 genome (GCF_000963815, https://www.ncbi.nlm.nih.gov/assembly/GCF_000963815.1/) using subread-aligner (subread 2.0.1) and summarized by featureCounts (subread 2.0.1). Principal component analysis (PCA) was conducted with mixOmics 6.14.1 in R. Differentially expressed genes were determined using limma 3.46.0 with a combination of fold change ≥ 2 and false discovery rate (FDR, by Benjamini–Hochberg algorithm) adjusted P-value ≤ 0.05 (n = 3). Enrichment analysis of gene differential expression in AB5075 was conducted using BioCyc (A. baumannii AB5075, version 25.5). UpSetR 1.4.0, ComplexHeatmap 2.6.2 and circlize 0.4.13 were used for data visualization. Raw data were deposited in Short Reads Archive (SRA) database under accession numbers SRR15235669-SRR15235725.

[4] = H vs Cont, 1h, RNA-Seq A. baumannii AB5075
[5] = H vs Cont, 4h, RNA-Seq A. baumannii AB5075
[6] = H, 4h vs 1h, RNA-Seq A. baumannii AB5075
[7] = L vs Cont, 1h, RNA-Seq A. baumannii AB5075
[8] = L vs Cont, 4h, RNA-Seq A. baumannii AB5075

CCCCCCCC(=O)N[C@@H](CCN)C(=O)N[C@H](C(=O)N[C@@H](CN)C(=O)N[C@H]1CCNC(=O)[C@H]([C@@H](C)O)NC(=O)[C@H](CCN)NC(=O)[C@H](CCN)NC(=O)[C@H](CC)NC(=O)[C@@H](CC(C)C)NC(=O)[C@H](CCN)NC1=O)[C@@H](C)O [Lipopeptide F287] (HELM PEPTIDE1{[CCCCCCCC(=O)[*:2]].[Dab].T.[NC[C@H](N[*:1])C(=O)[*:2]].[Dab].[Dab].[dL].[Abu].[Dab].[Dab].T}$PEPTIDE1,PEPTIDE1,5:R3-11:R2$$$V2.0)
MIC K. pneumoniae FADDI-KP032 [1]: <0.125 µg/mL
MIC K. pneumoniae FADDI-KP065 [2]: <0.125 µg/mL
logFC (Differential gene expression for all genes), Geneid ABUW_RS00005 [3, 4]: -0.2237
logFC (Differential gene expression for all genes), Geneid ABUW_RS00020 [3, 4]: 0.4813
logFC (Fold change), gene ABUW_RS00010 [3, 4]: 0.6329
logFC (Fold change), gene ABUW_RS00030 [3, 4]: -0.7589
logFC (Fold change), gene ABUW_RS00035 [3, 4]: 1.171
logFC (Fold change), gene recF (ABUW_RS00015) [3, 4]: 0.0004857
log2FC, gene ABUW_RS01945 (acyl-CoA thioesterase II) ([3]; H vs Cont, 1h): 0.3471
log2FC, gene ABUW_RS02545 (acyl-CoA thioesterase) ([3]; H vs Cont, 1h): 1.413
log2FC, gene ABUW_RS05045 (acyl-CoA thioesterase) ([3]; H vs Cont, 1h): 0.6077
log2FC, gene ABUW_RS17575 (acyl-CoA thioesterase) ([3]; H vs Cont, 1h): -1.9504
logFC (Differential gene expression for all genes), Geneid ABUW_RS00005 [3, 5]: -0.2595
logFC (Differential gene expression for all genes), Geneid ABUW_RS00020 [3, 5]: 0.07692
logFC (Fold change), gene ABUW_RS00010 [3, 5]: 1.124
logFC (Fold change), gene ABUW_RS00030 [3, 5]: -1.151
logFC (Fold change), gene ABUW_RS00035 [3, 5]: 1.24
logFC (Fold change), gene recF (ABUW_RS00015) [3, 5]: -1.077
log2FC, gene ABUW_RS01945 (acyl-CoA thioesterase II) ([3]; H vs Cont, 4h): -0.6425
log2FC, gene ABUW_RS02545 (acyl-CoA thioesterase) ([3]; H vs Cont, 4h): 1.263
log2FC, gene ABUW_RS05045 (acyl-CoA thioesterase) ([3]; H vs Cont, 4h): 0.8039
log2FC, gene ABUW_RS17575 (acyl-CoA thioesterase) ([3]; H vs Cont, 4h): -1.276
4h_1h logFC (Differential gene expression for all genes), Geneid ABUW_RS00005 [3, 6]: -0.6471
4h_1h logFC (Differential gene expression for all genes), Geneid ABUW_RS00010 [3, 6]: 0.4305
4h_1h logFC (Differential gene expression for all genes), Geneid ABUW_RS00015 [3, 6]: -1.349
4h_1h logFC (Differential gene expression for all genes), Geneid ABUW_RS00020 [3, 6]: 0.3991
logFC (Differential gene expression for all genes), Geneid ABUW_RS00005 [3, 7]: 0.09601
logFC (Differential gene expression for all genes), Geneid ABUW_RS00020 [3, 7]: 0.1731
logFC (Fold change), gene ABUW_RS00010 [3, 7]: 0.3235
logFC (Fold change), gene ABUW_RS00030 [3, 7]: -0.01757
logFC (Fold change), gene ABUW_RS00035 [3, 7]: 0.2853
logFC (Fold change), gene recF (ABUW_RS00015) [3, 7]: 0.06622
log2FC, gene ABUW_RS01945 (acyl-CoA thioesterase II) ([3]; L vs Cont, 1h): 0.394
log2FC, gene ABUW_RS02545 (acyl-CoA thioesterase) ([3]; L vs Cont, 1h): 0.4759
log2FC, gene ABUW_RS05045 (acyl-CoA thioesterase) ([3]; L vs Cont, 1h): -0.04078
log2FC, gene ABUW_RS17575 (acyl-CoA thioesterase) ([3]; L vs Cont, 1h): 0.9551
logFC (Differential gene expression for all genes), Geneid ABUW_RS00005 [3, 8]: 0.1326
logFC (Differential gene expression for all genes), Geneid ABUW_RS00020 [3, 8]: -0.2281
logFC (Fold change), gene ABUW_RS00010 [3, 8]: 0.09364
